# Measurements reported in PMC9304929, “The Cholesterol-Binding Sequence in Monomeric C-Reactive Protein Binds to the SARS-CoV-2 Spike Receptor-Binding Domain and Blocks Interaction With Angiotensin-Converting Enzyme 2” (Frontiers in Immunology, 2022).
# Tested on: SARS-CoV-2 spike RBD
# Experiment: Spike RBD-mCRP binding ELISA
# Conditions: His-tagged proteins expressed in E. coli, n = 3
# Experimental: The interactions of the spike-RBD with mCRP or CRP were also examined by enzyme-linked immunosorbent assay (ELISA) using mCRP/CRP-specific mAbs. Briefly, 100 μL of spike-RBD (1μg/mL) in Tris-buffered saline (TBS; 10 mM Tris, 140 mM NaCl, pH 7.4) was added per well to coat in 96-well microplates overnight at 4°C. The wells were then washed three times with TBS containing 0.02% Tween-20 for 5 min and blocked with 1% bovine serum albumin (BSA) in TBS for 1 h at 37°C. Next, mCRP was added and the plates were incubated for 1 h at 37°C. The color was developed by adding tetramethyl benzidine (TMB) to the wells and the color development was stopped with 1 M H2SO4.
substance,measurement,value
WT mCRP,binding of mCRP wild type or mutants to the spike RBD (ELISA),bound
